Laboratory results from US20220387405A1, “METHODS OF TREATMENT WITH N-((R)-1-(3-CHLOROPYRIDIN-2-YL)-2,2,2-TRIFLUOROETHYL)-2-((S)-2,6-DIOXOPIPERIDIN-3-YL)-1-OXOISOINDOLINE-5-CARBOXAMIDE” (CELGENE CORPORATION, priority 2021, published 2022).
Like-named read-outs stand apart in the source and are kept apart here.

Key:
[1] = test system: Normal T lymphocytes in BM samples; experiment: PharmaFlow test, normal T lymphocytes in AML patient BM samples; type: cell-based, human; details: BM samples of AML patients; for Compound 1 all but 1 patient
[2] = test system: leukemic progenitors from BM samples of AML patients; experiment: Colony forming assay (CFU-GM) with BM samples of AML patients; type: cell-based, human; details: TP53 WT AML samples (14 of 18), compared to vehicle control
Procedure: Ex vivo activity of Compound 1 was evaluated in normal and leukemic progenitors from BM samples of 25 AML patients using colony forming assays. […] The effect of Compound 1 on CK1α degradation, p53 accumulation, and activation is concentration- and time-dependent.

[3] = target: T1, cloned hERG potassium channel expressed in the HEK-293 cell line (Homo sapiens, UniProt Q12809); experiment: hERG IonWorks Barracuda patch clamp electrophysiology assay; type: cell-based
T1 construct: expressed in transfected cells; host or cells: HEK-293
Procedure: (§1) The effect of Compound 1 on the cloned hERG potassium channel expressed in the HEK-293 cell line was also investigated. […] The percent inhibition at 30 μM was 19%.

hERG potassium channel = target: T2, hERG potassium channel (Homo sapiens, UniProt Q12809); experiment: as above; type: cell-based; details: human, HEK-293 cells expressing cloned hERG potassium channel; at 30 μM; read-out: percent inhibition
T2 construct: expressed in transfected cells; host or cells: HEK-293
Procedure: as §1

[4] = Nonclinical pharmacokinetics in monkeys; type: in vivo
Text: The systemic clearance of Compound 1 was low and the volume of distribution was high in rats and monkeys. […] Notable sex differences in PK were not observed in either species. Compound 1 had good oral bioavailability (≥50%) in rats and monkeys.

CYP2C9 = target: T3, CYP2C9 (Homo sapiens, UniProt P11712); experiment: CYP inhibition in human liver microsomes, CYP2C9; type: in vitro ADME
T3 construct: In human liver microsomes; from tissue; host or cells: human liver microsomes

CYP1A2 [5] = target: T4, CYP1A2 (Homo sapiens, UniProt P05177); experiment: CYP inhibition in human liver microsomes, CYP1A2; type: in vitro ADME
T4 construct: In human liver microsomes; from tissue; host or cells: human liver microsomes

CYP2A6 = target: T5, CYP2A6 (Homo sapiens, UniProt P11509); experiment: CYP inhibition in human liver microsomes, CYP2A6; type: in vitro ADME
T5 construct: In human liver microsomes; from tissue; host or cells: human liver microsomes

CYP2B6 [6] = target: T6, CYP2B6 (Homo sapiens, UniProt P20813); experiment: CYP inhibition in human liver microsomes, CYP2B6; type: in vitro ADME
T6 construct: In human liver microsomes; from tissue; host or cells: human liver microsomes

CYP2E1 = target: T7, CYP2E1 (Homo sapiens, UniProt P05181); experiment: CYP inhibition in human liver microsomes, CYP2E1; type: in vitro ADME
T7 construct: In human liver microsomes; from tissue; host or cells: human liver microsomes

CYP1A2 [7] = experiment: CYP induction in human hepatocyte culture, CYP1A2 mRNA; type: in vitro ADME; details: up to 50 μM for three consecutive days
CYP2B6 [8] = experiment: CYP induction in human hepatocyte culture, CYP2B6 mRNA; type: in vitro ADME; details: up to 50 μM for three consecutive days
CYP3A4 = experiment: CYP induction in human hepatocyte culture, CYP3A4 mRNA; type: in vitro ADME; details: up to 50 μM for three consecutive days
[9] = test system: Salmonella typhimurium strains (TA1535, TA1537, TA98, TA100); experiment: Bacterial reverse mutation test, Salmonella typhimurium; type: cell-based
Procedure: Compound 1 was tested in Salmonella typhimurium strains (TA1535, TA1537, TA98, TA100) and Escherichia coli strain WP2 uvrA at a range of concentrations up to 5000 μg/plate (the standard limit concentration for this assay), in the presence and absence of a supplemented rat liver fraction (S9 mix), using the plate incorporation version of the bacterial reverse mutation test. Dimethyl sulfoxide (DMSO) was used as the solvent.
The mean revertant colony counts for the negative controls were within the laboratory historical control range. Bacteria were also incubated with standard positive controls, and the response of the various bacterial strains to these agents confirmed the sensitivity of the test system and the activity of the S9 mix. Therefore, the results from both the negative and positive controls confirmed the validity of the assay.
No substantial increases in revertant colony numbers were obtained with any of the tester strains, following exposure to Compound 1 at any concentration, in either the presence or absence of S9 mix. Therefore, Compound 1 was considered to be negative for the induction of mutagenicity in this in vitro assay.

[10] = test system: human peripheral blood (PB) lymphocytes; experiment: In vitro mammalian cell micronucleus test
Procedure: Compound 1 was tested in the in vitro mammalian cell micronucleus test in human peripheral blood (PB) lymphocytes in the presence and absence of a metabolic activation system, Aroclor-induced rat liver fraction (S9), for 4 hours, and in the absence of S9 for 24 hours. The highest concentration tested was 481 μg/mL. Dimethyl sulfoxide (DMSO) was used as the solvent. […] In addition, 2 lower concentrations with appropriate concentration and cytotoxicity spacing were chosen for micronucleus scoring in each regime.

[11] = Dose toxicity and toxicokinetics study in rats; type: in vivo; details: for AUC / Cmax: both sexes; for AUC / Cmax / NOAEL: rat, in vivo, po; for NOAEL: female, oral gavage, read-out: NOAEL (females)
Procedure: Additionally, control animals were dosed with a vehicle using a combination of both dosing regimens. Recovery of test article-related effects was evaluated during a 4-week recovery period.
Animals in Regimen 1 were dosed for 7 consecutive days in each 4-week cycle for 2 cycles (0.3 or 3 mg/kg on Days 1-7 and 29-35), whereas animals in Regimen 2 were dosed twice weekly for 4 weeks (0.5 or 5 mg/kg on Days 1, 4, 8, 11, 15, 18, 22 and 25). End of dosing necropsy was performed on the day after the last dose administration. A 4-week recovery period was included to assess reversibility of findings.

[12] = 0.3 mg/kg, Regimen 1, sexes combined
[13] = 0.5 mg/kg, Regimen 2, sexes combined

T6 sequence (P20813 whole entry): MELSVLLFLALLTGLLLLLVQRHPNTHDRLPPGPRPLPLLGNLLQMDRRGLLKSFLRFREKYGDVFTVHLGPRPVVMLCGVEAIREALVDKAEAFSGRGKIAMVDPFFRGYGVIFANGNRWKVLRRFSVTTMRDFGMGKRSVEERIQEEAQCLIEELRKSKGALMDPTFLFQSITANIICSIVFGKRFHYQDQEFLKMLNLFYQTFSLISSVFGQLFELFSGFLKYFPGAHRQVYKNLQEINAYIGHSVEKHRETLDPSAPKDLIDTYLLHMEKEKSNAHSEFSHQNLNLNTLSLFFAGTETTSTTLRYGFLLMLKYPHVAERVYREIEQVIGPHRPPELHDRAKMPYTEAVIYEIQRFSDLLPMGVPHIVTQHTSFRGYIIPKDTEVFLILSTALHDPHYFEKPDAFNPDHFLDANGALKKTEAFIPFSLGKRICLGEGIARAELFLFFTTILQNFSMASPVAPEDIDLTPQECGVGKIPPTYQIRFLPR
T1 sequence (Q12809 whole entry): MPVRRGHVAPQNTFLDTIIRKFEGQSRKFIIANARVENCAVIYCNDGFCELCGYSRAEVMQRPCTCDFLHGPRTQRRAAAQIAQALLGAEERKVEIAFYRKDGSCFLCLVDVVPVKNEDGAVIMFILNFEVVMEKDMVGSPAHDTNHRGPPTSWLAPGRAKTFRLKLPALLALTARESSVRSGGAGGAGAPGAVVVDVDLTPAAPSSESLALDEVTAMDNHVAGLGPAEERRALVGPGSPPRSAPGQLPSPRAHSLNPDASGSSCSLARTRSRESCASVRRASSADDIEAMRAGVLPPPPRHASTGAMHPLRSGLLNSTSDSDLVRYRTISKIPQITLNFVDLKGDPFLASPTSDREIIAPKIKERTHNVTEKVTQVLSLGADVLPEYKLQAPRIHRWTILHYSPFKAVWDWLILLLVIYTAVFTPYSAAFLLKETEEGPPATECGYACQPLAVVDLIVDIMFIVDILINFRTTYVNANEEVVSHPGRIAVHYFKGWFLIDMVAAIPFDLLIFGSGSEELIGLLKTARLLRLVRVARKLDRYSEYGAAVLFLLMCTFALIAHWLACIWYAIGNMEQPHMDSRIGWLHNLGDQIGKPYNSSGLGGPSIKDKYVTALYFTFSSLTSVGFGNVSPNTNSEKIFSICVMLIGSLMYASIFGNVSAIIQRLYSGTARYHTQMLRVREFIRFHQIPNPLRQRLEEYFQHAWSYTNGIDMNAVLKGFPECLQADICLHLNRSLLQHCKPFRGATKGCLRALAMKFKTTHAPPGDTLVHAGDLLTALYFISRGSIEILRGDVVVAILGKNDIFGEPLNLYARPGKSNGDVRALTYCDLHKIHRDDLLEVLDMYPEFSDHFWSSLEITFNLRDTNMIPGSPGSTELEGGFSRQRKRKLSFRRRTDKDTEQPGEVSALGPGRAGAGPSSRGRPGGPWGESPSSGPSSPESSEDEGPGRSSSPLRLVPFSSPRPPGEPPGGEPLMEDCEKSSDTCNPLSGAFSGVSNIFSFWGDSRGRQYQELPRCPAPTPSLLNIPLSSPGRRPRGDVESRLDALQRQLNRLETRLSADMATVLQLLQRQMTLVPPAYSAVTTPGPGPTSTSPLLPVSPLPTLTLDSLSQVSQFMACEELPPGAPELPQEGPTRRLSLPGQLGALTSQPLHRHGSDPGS
T7 sequence (P05181 whole entry): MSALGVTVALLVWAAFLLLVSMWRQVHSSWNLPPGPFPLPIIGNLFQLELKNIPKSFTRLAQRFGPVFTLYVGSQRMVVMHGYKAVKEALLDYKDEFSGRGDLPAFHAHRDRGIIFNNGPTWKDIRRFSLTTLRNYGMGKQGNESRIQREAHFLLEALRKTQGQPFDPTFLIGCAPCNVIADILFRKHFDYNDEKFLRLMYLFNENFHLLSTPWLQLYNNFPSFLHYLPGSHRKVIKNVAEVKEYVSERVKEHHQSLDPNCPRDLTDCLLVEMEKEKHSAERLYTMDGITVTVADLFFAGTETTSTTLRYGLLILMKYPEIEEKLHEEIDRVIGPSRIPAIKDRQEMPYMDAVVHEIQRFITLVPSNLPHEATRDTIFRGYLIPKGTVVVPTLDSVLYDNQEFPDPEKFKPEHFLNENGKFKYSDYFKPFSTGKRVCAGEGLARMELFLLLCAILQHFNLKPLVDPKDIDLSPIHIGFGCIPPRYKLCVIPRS
T4 sequence (P05177 whole entry): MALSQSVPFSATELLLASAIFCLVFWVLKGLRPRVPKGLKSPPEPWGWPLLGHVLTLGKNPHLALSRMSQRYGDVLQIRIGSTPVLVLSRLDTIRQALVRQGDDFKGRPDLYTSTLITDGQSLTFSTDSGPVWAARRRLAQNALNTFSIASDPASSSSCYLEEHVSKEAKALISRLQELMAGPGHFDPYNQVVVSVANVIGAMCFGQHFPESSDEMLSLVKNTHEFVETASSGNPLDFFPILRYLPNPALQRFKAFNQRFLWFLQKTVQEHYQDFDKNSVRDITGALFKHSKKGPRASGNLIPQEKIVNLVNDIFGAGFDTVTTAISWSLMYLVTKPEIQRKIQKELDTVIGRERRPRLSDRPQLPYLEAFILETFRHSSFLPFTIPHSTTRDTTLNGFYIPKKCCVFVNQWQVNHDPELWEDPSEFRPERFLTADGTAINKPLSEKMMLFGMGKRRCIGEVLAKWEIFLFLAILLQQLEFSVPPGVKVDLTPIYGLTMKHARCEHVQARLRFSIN
T3 sequence (P11712 whole entry): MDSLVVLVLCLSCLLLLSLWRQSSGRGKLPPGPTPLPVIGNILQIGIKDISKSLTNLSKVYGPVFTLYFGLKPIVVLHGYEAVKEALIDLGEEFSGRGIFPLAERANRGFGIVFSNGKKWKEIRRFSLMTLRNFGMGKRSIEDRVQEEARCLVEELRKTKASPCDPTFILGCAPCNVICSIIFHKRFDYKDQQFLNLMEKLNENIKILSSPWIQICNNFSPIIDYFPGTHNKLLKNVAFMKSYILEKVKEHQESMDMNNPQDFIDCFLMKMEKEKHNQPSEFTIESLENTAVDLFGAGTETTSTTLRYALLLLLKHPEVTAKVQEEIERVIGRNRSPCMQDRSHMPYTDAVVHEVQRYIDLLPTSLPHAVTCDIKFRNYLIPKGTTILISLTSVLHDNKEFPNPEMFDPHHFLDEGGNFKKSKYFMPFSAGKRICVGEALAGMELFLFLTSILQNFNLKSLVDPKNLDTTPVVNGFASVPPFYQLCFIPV
T5 sequence (P11509 whole entry): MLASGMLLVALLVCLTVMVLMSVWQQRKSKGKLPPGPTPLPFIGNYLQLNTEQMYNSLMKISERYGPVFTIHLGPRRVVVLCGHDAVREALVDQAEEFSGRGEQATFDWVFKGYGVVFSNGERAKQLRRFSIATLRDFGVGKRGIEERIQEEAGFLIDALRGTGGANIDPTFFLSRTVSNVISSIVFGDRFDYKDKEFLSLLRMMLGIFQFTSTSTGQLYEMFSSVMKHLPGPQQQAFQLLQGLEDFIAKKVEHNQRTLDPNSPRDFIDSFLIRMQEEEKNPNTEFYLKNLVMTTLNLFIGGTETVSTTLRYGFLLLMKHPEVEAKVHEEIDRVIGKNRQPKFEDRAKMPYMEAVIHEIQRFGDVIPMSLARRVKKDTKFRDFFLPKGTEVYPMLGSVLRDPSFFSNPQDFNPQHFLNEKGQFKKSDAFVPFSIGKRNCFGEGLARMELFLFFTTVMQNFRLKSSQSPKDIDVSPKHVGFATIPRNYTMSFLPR
T2 sequence (Q12809 whole entry): as the sequence (Q12809 whole entry) above

What does the source list for `O=C1CC[C@H](N2Cc3cc(C(=O)N[C@H](c4ncccc4Cl)C(F)(F)F)ccc3C2=O)C(=O)N1` [Compound 1, N-((R)-1-(3-chloropyridin-2-yl)-2,2,2-trifluoroethyl)-2-((S)-2,6-dioxopiperidin-3-yl)-1-oxoisoindoline-5-carboxamide]?
cytotoxicity in T lymphocytes [1]: noticeably more resistant; samples with inhibited formation of CFU-GM colonies [2]: 77.8%; precipitation in the assay ([3]; concentrations up to 30 μM): did not precipitate; IC50 ([3]; hERG, IonWorks Barracuda patch clamp): > 30 µM; inhibition at 30 µM (hERG potassium channel): 19%; accumulation following multiple doses [4]: No accumulation; systemic clearance [4]: low; volume of distribution [4]: high; bioavailability ([4]; monkey, in vivo, po): ≥ 50%; half-life ([4]; monkey, in vivo, read-out: terminal half-life): 2.3 to 4.4 h; time-dependent inhibition (CYP2C9; CYP2C9, 30-minute preincubation with NADPH): not a time-dependent inhibition; IC50 (CYP2C9; human liver microsomes, CYP2C9): > 30 µM; time-dependent inhibition (CYP1A2 [5]; CYP1A2, 30-minute preincubation with NADPH): not a time-dependent inhibition; inhibitory effect (CYP1A2 [5]; human liver microsomes, CYP1A2): ≤ 25%; time-dependent inhibition (CYP2A6; CYP2A6, 30-minute preincubation with NADPH): not a time-dependent inhibition; inhibitory effect (CYP2A6; human liver microsomes, CYP2A6): ≤ 25%; time-dependent inhibition (CYP2B6 [6]; CYP2B6, 30-minute preincubation with NADPH): not a time-dependent inhibition; inhibitory effect (CYP2B6 [6]; human liver microsomes, CYP2B6): ≤ 25%; time-dependent inhibition (CYP2E1; CYP2E1, 30-minute preincubation with NADPH): not a time-dependent inhibition; inhibitory effect (CYP2E1; human liver microsomes, CYP2E1): ≤ 25%; mRNA expression of CYP1A2 (CYP1A2 [7]): no dose-dependent increases; mRNA expression of CYP2B6 (CYP2B6 [8]): no dose-dependent increases; mRNA expression of CYP3A4 (CYP3A4): no dose-dependent increases; toxicity to the bacteria ([9]; highest concentrations tested): non-toxic; induction of mutagenicity (revertant colony numbers) ([9]; up to 5000 μg/plate, presence and absence of S9 mix): negative; proportion of micronucleated binucleate cells (MBC) ([10]; 4 hours with and without S9, 24 hours without S9, compared with negative controls): did not cause any statistically significant increases; cytotoxicity based on CBPI ([10]; human, 24 h, 120 μg/mL): approximately 55%; severely toxic dose in 10% of the animals (STD 10) ([11]; Regimen 1): 0.3 mg/kg; severely toxic dose in 10% of the animals (STD 10) ([11]; Regimen 2): 0.5 mg/kg; NOAEL (males) ([11]; both regimens): not identified; AUC [11, 12]: 761 ng·h/mL; Cmax [11, 12]: 225 ng/mL; AUC [11, 13]: 1200 ng·h/mL; Cmax [11, 13]: 263 ng/mL; NOAEL ([11]; Regimen 1 (Days 1-7 and 29-35)): 0.3 mg/kg; NOAEL ([11]; Regimen 2 (twice weekly for 4 weeks)): 0.5 mg/kg
